Experimental data: patent US20220289751A1, “COMPOUND HAVING KDM5 INHIBITORY ACTIVITY AND PHARMACEUTICAL USE THEREOF” (ONO PHARMACEUTICAL CO., LTD., priority 2019, published 2022)
Where two headings read alike, the source gives them in different places.

Tests used:
[1] = tested on: Wild type MDCKII cells; experiment: Permeability in wild type MDCK cell lines (MDCK-WT); type: in vitro ADME; settings: apical to basal, 10 μM test compound, 60 min, pH 7.4
Description: (§1) Wild type MDCKII cells were seeded onto an apical chamber 3 days prior to running the assay at a density of 2.3×10^5 cells per well. The integrity of cell monolayers was evaluated by examining the permeability of lucifer yellow assay using a Spectramax Gemini XS with excitation and emission at 426 nm and 538 nm respectively. Permeation of Lucifer Yellow should be ≤10×10^−6 cm/s for the experimental data to be accepted. The cell monolayers were preincubated in transport buffer (HBSS with CaCl2 and MgCl2)+25 mM HEPES, adjust to pH 7.4) at 37° C. or more than 20 min. Transport experiment was initiated by adding test compound solution (10 μM) to the apical chamber. Samples were obtained from basal chamber at 60 min, followed by addition of ice-cold acetonitrile containing internal standard. LC-MS/MS analysis was conducted as specified below. Standard calibration samples were prepared using the same matrix and analysed in the same manner. [table] […] Papp(cm/s)=(dCB/dt)×VB/(A×CA) dCB/dt is the slope of the cumulative concentration in basal side versus time VB is the volume of the basal compartment A is the area of the membrane surface area CA is the initial concentration in apical side

[2] = molecular target: T1, KDM5A protein (Homo sapiens, UniProt P29375); experiment: Biochemical KDM5A inhibition assay (HTRF); settings: read-out: IC50 value
T1 construct: purchased BPS Bioscience 50110
Description: Using 384-well white ProxiPlates (PerkinElmer), representative compounds were characterized for their inhibition of KDM5A using HTRF® technology (Cisbio Bioassays). Briefly, the test compounds, reference compounds, and DMSO control (typical compound concentration range 300 pM-10 μM, final assay concentration (FAC) of DMSO 0.5%) were added to 384-well plate by the Echo® acoustic dispensing platform (Labcyte). Three (3) μ1 of KDM5A protein (BPS Bioscience, Cat #50110)(10 or 20 nM FAC) in assay buffer (50 mM MES, 50 mM NaCl, 2 mM ascorbic acid, 0.01% v/v Tween 20, pH 6.5) was added to wells and plates were incubated for 10 minutes at room temperature. Then, 3 μl of biotin-labelled H3K4-me3 substrate (Anaspec Cat #AS-64357-1; 100 nM FAC), alpha-ketoglutaric acid ([…]) and Fe(II)SO4 (FAC 100 μM) in assay buffer was added and plates were incubated for 60 minutes at room temperature. The reaction was stopped with the addition of 6 μl of anti-H3-[…]-Eu(K) (Cisbio Bioassays Cat #61KA2KAE; 0.025 μg/ml FAC)+Streptavidin XL665 (Cisbio Bioassays Cat #610SAXLA; 0.5 μg/ml FAC) in HTRF detection buffer (Cisbio Bioassays Cat #62SDBRDD). The mixture was incubated for 90 minutes at room temperature before 340 nm excitation and measurement of dual emission at 620 nm and 665 nm. The raw data (a 665 nm and a 620 nm reading from each well) for individual assay plates were analyzed. The ratio of emissions was calculated using the following calculation: Ratio=(665 nm emission/620 nm emission)*10000. Using DMSO control (maximum response or 0% inhibition) and 1 μM reference control compound (minimum response or 100% inhibition), percentage inhibition values for each well were calculated using the median values of the minimum and maximum control wells and the following calculation: % Inhibition=(Well ratio-max control ratio)/(min control ratio-max control ratio)*100. Compound IC50 values were calculated from graphs of % inhibition plotted against compound concentration, using a four parameter curve fit.

[3] = Permeability in wild type MDCK cell lines (MDCK-WT); type: in vitro ADME; settings: dog, MDCK, pH 7.4, apical to basal, 10 μM test compound, read-out: MDCK-WT (Papp)
Description: as §1

T1 sequence (P29375 whole entry): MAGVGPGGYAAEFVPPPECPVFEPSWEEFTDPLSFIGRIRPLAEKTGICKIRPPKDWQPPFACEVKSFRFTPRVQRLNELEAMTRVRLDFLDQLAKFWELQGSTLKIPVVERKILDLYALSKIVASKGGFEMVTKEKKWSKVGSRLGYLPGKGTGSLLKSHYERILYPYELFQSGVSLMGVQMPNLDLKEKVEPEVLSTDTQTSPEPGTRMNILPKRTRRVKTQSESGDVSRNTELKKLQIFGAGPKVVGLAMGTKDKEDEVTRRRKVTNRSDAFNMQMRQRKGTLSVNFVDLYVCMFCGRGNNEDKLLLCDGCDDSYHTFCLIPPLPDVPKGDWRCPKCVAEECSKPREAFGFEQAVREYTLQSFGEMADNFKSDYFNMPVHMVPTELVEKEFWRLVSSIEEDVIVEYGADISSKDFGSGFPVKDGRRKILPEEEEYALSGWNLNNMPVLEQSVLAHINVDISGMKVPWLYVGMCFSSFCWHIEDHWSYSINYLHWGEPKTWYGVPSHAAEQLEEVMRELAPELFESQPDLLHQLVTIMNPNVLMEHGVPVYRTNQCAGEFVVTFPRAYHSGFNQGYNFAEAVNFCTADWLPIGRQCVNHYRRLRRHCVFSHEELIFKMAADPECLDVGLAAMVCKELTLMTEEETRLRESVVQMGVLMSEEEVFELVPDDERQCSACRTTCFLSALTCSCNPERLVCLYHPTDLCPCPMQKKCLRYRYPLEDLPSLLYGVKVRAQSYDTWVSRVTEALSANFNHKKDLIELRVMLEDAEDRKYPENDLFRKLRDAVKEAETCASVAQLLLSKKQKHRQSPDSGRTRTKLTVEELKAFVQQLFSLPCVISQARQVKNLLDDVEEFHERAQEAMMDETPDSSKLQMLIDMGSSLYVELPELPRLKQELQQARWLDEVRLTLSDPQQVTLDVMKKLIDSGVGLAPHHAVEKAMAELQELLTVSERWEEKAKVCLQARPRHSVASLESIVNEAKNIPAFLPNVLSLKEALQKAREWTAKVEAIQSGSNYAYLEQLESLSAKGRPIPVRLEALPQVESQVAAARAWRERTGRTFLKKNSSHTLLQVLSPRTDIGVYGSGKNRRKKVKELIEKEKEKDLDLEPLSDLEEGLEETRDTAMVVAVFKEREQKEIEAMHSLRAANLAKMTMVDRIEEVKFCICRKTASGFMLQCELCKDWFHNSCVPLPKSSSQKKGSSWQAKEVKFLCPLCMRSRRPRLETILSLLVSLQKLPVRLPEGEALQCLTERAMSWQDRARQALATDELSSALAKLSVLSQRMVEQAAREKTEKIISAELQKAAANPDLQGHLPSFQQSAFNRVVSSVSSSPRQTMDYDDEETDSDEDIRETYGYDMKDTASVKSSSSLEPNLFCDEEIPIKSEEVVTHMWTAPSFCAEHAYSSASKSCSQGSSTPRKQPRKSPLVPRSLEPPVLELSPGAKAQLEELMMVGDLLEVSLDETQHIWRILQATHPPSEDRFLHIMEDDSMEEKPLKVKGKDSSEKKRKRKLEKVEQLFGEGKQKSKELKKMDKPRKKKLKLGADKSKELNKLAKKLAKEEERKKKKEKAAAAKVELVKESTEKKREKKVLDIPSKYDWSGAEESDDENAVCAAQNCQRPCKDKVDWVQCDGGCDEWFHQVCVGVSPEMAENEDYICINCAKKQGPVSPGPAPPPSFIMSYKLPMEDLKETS

## O=C(NC1CN(C(=O)c2cc(C3CC3)[nH]n2)C1)C1CC12CC2 (single isomer, unassigned) [EXAMPLE 105, N-(1-(5-cyclopropyl-1H-pyrazole-3-carbonyl)azetidin-3-yl)spiro[2.2]pentane-1-carboxamide]
[1]
  MDCK-WT (Papp) [10^−6 cm/s]: 6 10^−6 cm/s

## CC(C)c1cc(C(=O)N2C[C@@H]3[C@H](C2)[C@H]3C(=O)C2CC2)n[nH]1 [EXAMPLE 94, ((1R,5S,6r)-6-(cyclopropanecarbonyl)-3-azabicyclo[3.1.0]hexan-3-yl)(5-isopropyl-1H-pyrazol-3-yl)methanone]
[2]; * measured at 10 nM enzyme concentration
  IC50: 1500 nM
[3]
  Papp A→B at 60 min, 10 μM: 68 ×10⁻⁶ cm/s

## CC(C)c1c(-c2ccccc2)[nH]n2c(C#N)cnc2c1=O [EXAMPLE 95, 7-Isopropyl-8-oxo-6-phenyl-5,8-dihydroimidazo[1,2-b]pyridazine-3-carbonitrile]
[2]; 20 nM enzyme concentration
  IC50: 400 nM
[3]
  Papp A→B at 60 min, 10 μM: 66 ×10⁻⁶ cm/s

## CC(C)c1cc(C(=O)N2C[C@@H]3[C@H](C2)[C@H]3C(=O)N2CCCC2(C)C)n[nH]1 [EXAMPLE 131, (2,2-Dimethylpyrrolidin-1-yl)((1R,5S,6r)-3-(5-isopropyl-1H-pyrazole-3-carbonyl)-3-azabicyclo[3.1.0]hexan-6-yl)methanone]
[1]
  MDCK-WT (Papp) [10^−6 cm/s]: 20 10^−6 cm/s

## Cc1onc([C@H]2[C@@H]3CN(C(=O)c4cc(C(C)C)[nH]n4)C[C@@H]32)c1-c1ccccc1 [EXAMPLE 134, (5-Isopropyl-1H-pyrazol-3-yl)((1R,5S,6r)-6-(5-methyl-4-phenylisoxazol-3-yl)-3-azabicyclo[3.1.0]hexan-3-yl)methanone]
[1]
  MDCK-WT (Papp) [10^−6 cm/s]: 24 10^−6 cm/s
